Assay results: patent US20060094749A1, “Substituted pyridoxines as anti-platelet agents” (Medicure International Inc., priority 2004, published 2006)

Columns and labels:
Assay type in all cases: cell-based
[1] = system: platelets (platelet rich plasma); assay: Inhibition of platelet aggregation, collagen as agonist; conditions: human PRP; for inhibition at 500 µM: compound 500 μM; for inhibition at 100 µM: compound 100 μM; for inhibition at 250 µM: compound 250 μM; for inhibition at 50 µM: compound 50 μM
Method: (§1) Platelet rich plasma (PRP) was obtained by drawing whole blood from normal human donors (not on any medication) into sodium citrate tubes (3.2%), and centrifuging at 160 xg for about 10 minutes. Platelet poor plasma (PPP) was obtained by centrifuging the remainder of the sample after the platelets were removed at 800 xg for about 10 minutes. The PRP was adjusted to a count of 280×10^9/L using a mixture of PRP and PPP. The platelets (200 μL) were incubated with the test compounds (25 μL) adjusted to various concentrations (50, 100, 250, and 500 μM) for about 30 minutes at room temperature (approximate final platelet count in the incubation mixture of 250×10^9/L). The samples were incubated for about 3 minutes at about 37° C., and then transferred to the mixing wells of a Chrono-log 4 channel aggregometer (Chrono-log Corp., Havertown, Pa.). After baselines were established, the agonist (25 μL of 40 μM ADP (Sigma, St. Louis, Mo.) or 25 μL of 50 μg/mL and 10 μg/mL collagen (Helena Laboratories, Beaumont, Tex.) or 25 μL of 120 μM thrombin receptor activating peptide (TRAP) (Sigma)) was then added. Aggregation was monitored for 5 minutes at 37° C. with stirring (1000 rpm). The amplitude and slope of each tracing were calculated to determine the amount of aggregation. Control samples were performed using only solvent. The % reduction in aggregation was calculated for each sample compared to the proper solvent control.

[2] = system: platelets (platelet rich plasma); assay: Inhibition of platelet aggregation, ADP as agonist; conditions: ADP 4 μM, human PRP, read-out: % Reduction in Aggregation, ADP (4 μM); for inhibition at 500 µM: compound 500 μM; for inhibition at 100 µM: compound 100 μM; for inhibition at 250 µM: compound 250 μM
Method: as §1

[3] = system: platelets (platelet rich plasma); assay: Inhibition of platelet aggregation, thrombin receptor activating peptide (TRAP) as agonist; conditions: TRAP 12 μM, human PRP, read-out: % Reduction in Aggregation, TRAP (12 μM); for inhibition at 500 µM: compound 500 μM; for inhibition at 100 µM: compound 100 μM; for inhibition at 250 µM: compound 250 μM
Method: as §1

[4] = collagen 1 μg/mL, read-out: % Reduction in Aggregation, Collagen (1 μg/mL)
[5] = collagen 5 μg/mL, read-out: % Reduction in Aggregation, Collagen (5 μg/mL)

Compound	inhibition at 500 µM [1, 4]	inhibition at 500 µM [1, 5]	inhibition at 500 µM [2]	inhibition at 500 µM [3]	inhibition at 250 µM [1, 4]	inhibition at 250 µM [1, 5]	inhibition at 250 µM [2]	inhibition at 250 µM [3]	also measured
Cc1ncc(CCNCc2cccc(C(=N)N)c2)c(CO)c1O [Compound 57, 3-{[2-(5-Hydroxy-4-hydroxymethyl-6-methyl-pyridin-3-yl)ethylamino]methyl}-benzamidine]	6%	0%	0%	14%					
Cc1ncc(CNC(=O)c2ccc(-c3ccc(C(=N)N)cc3)cc2)c(C(=O)O)c1O [Compound 26, 5-{[(4′-Carbamimidoyl-biphenyl-4-carbonyl)-amino]-methyl}-3-hydroxy-2-methyl-isonicotinic acid]									inhibition at 100 µM [1, 4]: 52%; inhibition at 100 µM [1, 5]: 18%; inhibition at 100 µM [2]: 62%; inhibition at 100 µM [3]: 17%
Cc1ncc(CNCc2ccc(C(=N)N)cc2)c(CO)c1O [Compound 7, 4-{[(5-Hydroxyl-4-hydroxymethyl-6-methyl-pyridin-3-ylmethyl)-amino]-methyl}-benzamidine]	2%	8%	26%	34%					
Cc1ncc(CNc2ccc(-c3ccc(C(=N)N)cc3)cc2C(F)(F)F)c(CO)c1O [Compound 37, 4′-[(5-Hydroxy-4-hydroxymethyl-6-methyl-pyridin-3-ylmethyl)-amino]-3′-trifluoromethyl-biphenyl-4-carboxamidine]					19%	6%	43%	17%	
Cc1ncc(CCNC(=O)c2ccc(C(=N)N)cc2)c(CO)c1O [Compound 59, 4-Carbamimidoyl-N-[2-(5-hydroxy-4-hydroxymethyl-6-methyl-pyridin-3-yl)-ethyl]-benzamide]	28%	11%	55%	67%					
Cc1ncc(CNc2ccc(-c3ccc(C(=N)N)cc3)cn2)c(CO)c1O [Compound 31, 4-{6-[(5-Hydroxy-4-hydroxymethyl-6-methyl-pyridin-3-ylmethyl)-amino]-pyridin-3-yl}-benzamidine]					74%	28%	79%	64%	
COC(=O)c1c(CNC(=O)c2ccc(-c3ccc(C(=N)N)cc3)cc2)cnc(C)c1OC [Compound 28, 5-{[(4′-Carbamimidoyl-biphenyl-4-carbonyl)-amino]-methyl}-3-methoxy-2-methyl-isonicotinic acid methyl ester]					17%	24%	46%	10%	
Cc1ncc(CNCc2cccc(C(=N)N)c2)c(CO)c1O [Compound 9, 3-{[(5-Hydroxy-4-hydroxymethyl-6-methyl-pyridin-3-ylmethyl)-amino]-methyl]-benzamidine]	0%	10%	2%	0%					
Cc1ncc(CNC(=O)c2ccc(-c3ccc(C(=N)N)cc3)cc2)c(CO)c1O [Compound 20, 4′-Carbamimidoyl-biphenyl-4-carboxylic (5-hydroxyl-4-hydroxymethyl-6-methyl-pyridin-3-ylmethyl)-amide]					94%	64%	93%	95%	
Cc1ncc(CO)c(CNc2ccc(C(=N)N)cc2)c1O [Compound 39, 4-[(3-Hydroxy-5-hydroxymethyl-2-methyl-pyridin-4-ylmethyl)-amino]-benzamidine]									inhibition at 100 µM [1, 4]: 1%; inhibition at 100 µM [1, 5]: 8%; inhibition at 100 µM [2]: 3%; inhibition at 100 µM [3]: 5%
Cc1ncc(CNc2ccc(-c3ccc(C(=N)N)cc3)cc2)c(C)c1O [Compound 43, 4′-[(5-Hydroxy-4,6-dimethyl-pyridin-3-ylmethyl)-amino]-biphenyl-4-carboxamidine]					100%	0%	87%	69%	
Cc1ncc(CCNC(=O)c2cccc(C(=N)N)c2)c(CO)c1O [Compound 61, 3-Carbamimidoyl-N-[2-(5-hydroxy-4-hydroxymethyl-6-methyl-pyridin-3-yl)-ethyl]-benzamide]	0%	10%	2%	0%					
Cc1ncc(CNC(=O)c2cccc(C(=N)N)c2)c(CO)c1O [Compound 2, 3-Carbamimidoyl-N-(5-hydroxy-4-hydroxymethyl-6-methyl-pyridin-3-ylmethyl)-benzamide]	3%	12%	10%	6%					
Cc1ncc(CN(Cc2ccc(C(=N)N)cc2)c2ccc(C(=N)N)cc2)c(CO)c1O [Compound 52, 4-(N-(4-Carbamimidoyl-benzyl)-N-((5-hydroxy-4-(hydroxymethyl)-6-methylpyridin-3-yl)methyl)amino)benzamidine]									inhibition at 50 µM [1, 4]: 93%; inhibition at 50 µM [1, 5]: 7%; inhibition at 50 µM ([2]; compound 50 μM): 95%; inhibition at 50 µM ([3]; compound 50 μM): 95%
Cc1ncc(CCNCc2ccc(C(=N)N)cc2)c(CO)c1O [Compound 55, 4-{[2-(5-Hydroxy-4-hydroxymethyl-6-methyl-pyridin-3-yl)-ethylamino]-methyl}-benzamidine]	24%	20%	38%	75%					
Cc1ncc(CNc2ccc(-c3ccc(C(=N)N)cc3)cc2OC(F)(F)F)c(CO)c1O [Compound 35]					86%	12%	84%	35%	
COc1c(C)ncc(CNC(=O)c2ccc(-c3ccc(C(=N)N)cc3)cc2)c1CO [Compound 23, 4′-Carbamimidoyl-biphenyl-4-carboxylic acid (4-hydroxymethyl-5-methoxy-6-methyl-pyridin-3-ylmethyl)-amide]					19%	17%	39%	27%	
Cc1ncc(CNC(=O)c2ccc(-c3ccc([N+](=O)[O-])nc3)cc2)c(CO)c1O [Compound 18, N-(5-Hydroxy-4-hydroxymethyl-6-methyl-pyridin-3-ylmethyl)-4-(6-nitro-pyridin-3-yl)-benzamide]					6%	7%	10%	30%	
Cc1ncc(CNC(=O)c2ccc(C(=N)N)cc2)c(CO)c1O [Compound 5, 4-Carbamimidoyl-N-(5-hydroxyl-4-hydroxymethyl-6-methyl-pyridin-3-ylmethyl)-benzamide]	91%	27%	71%	84%					
Cc1ncc(CNc2cccc(C(=N)N)c2)c(CO)c1O [Compound 14, 3-[(5-Hydroxy-4-hydroxymethyl-6-methyl-pyridin-3-ylmethyl)-amino]-benzamidine]	0%	3%	16%	8%					
